Columns and labels:
[1] = system: cap-dependent translation in Flp-In-293 reporter cells; assay: Cellular cap-dependent translation inhibition assay (dual luciferase assay, DLA; Fluc/Rluc ratio, 24 hours); assay type: cell-based; conditions: Homo sapiens, Flp-In-293, 24 h, dual luciferase assay, Flp-In-293 reporter cells, 24 hours, Fluc/Rluc ratio; read-out: DLA 205 IC50
[2] = system: COLO 205 colorectal tumor cells; assay: Tumor cell viability inhibition assay (CellTiter-Glo 2.0, 72 hours); assay type: cell-based; conditions: Homo sapiens, COLO 205, 72 h, COLO 205 cell viability
In short: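 COLO 205 cells (1500/well, RPMI-1640 + 10% FBS) exposed for 72 h to an 11-point, 4-fold dilution series; cellular ATP read by CellTiter-Glo 2.0 luminescence. Data normalized to DMSO and maximum-inhibition controls; IC50 from 4-parameter curve fit.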

human eIF4E protein = molecular target: T1, human eIF4E protein (Homo sapiens, UniProt P06730); assay: Biochemical competitive binding assay (TR-FRET competition, EDA-m7GDP-ATTO-647N probe); conditions: read-out: hEIF4E TR-FRET IC50
T1 construct: purchased Novus NBP-45314
T1 sequence (P06730 whole entry): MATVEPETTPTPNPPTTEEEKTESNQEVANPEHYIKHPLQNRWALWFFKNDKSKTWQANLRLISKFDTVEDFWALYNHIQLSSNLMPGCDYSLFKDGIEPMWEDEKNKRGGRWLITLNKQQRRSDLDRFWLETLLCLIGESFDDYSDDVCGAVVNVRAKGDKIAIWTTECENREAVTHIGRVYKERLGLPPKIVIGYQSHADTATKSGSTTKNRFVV
In short: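 His-tagged human eIF4E (4 nM) was preincubated with Eu-anti-His antibody (2.5 nM) and added to compound (11-point, 4-fold dilutions) for 15 min. Then 5 nM EDA-m7GDP-ATTO-647N was added for 15 min, in HEPES pH 7.5, 100 mM KCl. The 665/620 TR-FRET ratio was normalized to controls, and IC50 was taken from 4-parameter fits.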

SMILES | IC50 [1] [µM] | IC50 [2] [µM] | IC50 (human eIF4E protein) [µM]
Cc1cc(-c2cc(Cl)ccc2OCCn2c(C)nc3c(c2=O)CC(N2CC4(COC4)C2)CC3)c2scc(C(=O)O)c2n1 (stereo not drawn) [Compound 20] | < 1 | < 5 | < 0.1
Cc1cc(-c2cc(Cl)ccc2OCCn2c(C)nc3c(c2=O)CC(N2CC4(CCN(C)C4)C2)CC3)c2scc(C(=O)O)c2n1 (stereo not drawn) [Compound 21] | > 5 | > 20 | < 0.1
Cc1cc(-c2cc(Cl)ccc2OCCn2c(C)nc3c(c2=O)CC(N2CC4(CCN(C)CC4)C2)CC3)c2scc(C(=O)O)c2n1 (stereo not drawn) [Compound 22] | 1 to 5 | > 20 | < 0.1
Cc1cc(-c2cc(Cl)ccc2OCCn2c(C)nc3c(c2=O)CC(N2CC(C)(N(C)C)C2)CC3)c2scc(C(=O)O)c2n1 (stereo not drawn) [Compound 23] | > 5 | > 20 | < 0.1
Cc1cc(-c2cc(Cl)ccc2OCCn2c(C)nc3c(c2=O)CC(N2CCC4(COC4)C2)CC3)c2scc(C(=O)O)c2n1 (stereo not drawn) [Compound 26] | < 1 | < 5 | < 0.1
Cc1cc(-c2cc(Cl)ccc2OCCn2c(C)nc3c(c2=O)CC(N2CC4CN(C)CC4C2)CC3)c2scc(C(=O)O)c2n1 (stereo not drawn) [Compound 27] | > 5 | > 20 | < 0.1
COC1CN(C2CCc3nc(C)n(CCOc4ccc(Cl)cc4-c4cc(C)nc5c(C(=O)O)csc45)c(=O)c3C2)C1 (stereo not drawn) [Compound 28] | < 1 | < 5 | < 0.1
Cc1cc(-c2cc(Cl)ccc2OCCn2c(C)nc3c(c2=O)CC(N(C)CC2COC2)CC3)c2scc(C(=O)O)c2n1 (stereo not drawn) [Compound 29] | < 1 | < 5 | < 0.1
Cc1nc2c(c(=O)n1CCOc1ccc(Cl)cc1-c1ccnn3c(C(=O)O)ccc13)CC(N(C)C)CC2 (stereo not drawn) [Compound 30, 4-[5-chloranyl-2-[2-[6-[di(methyl)amino]-2-methyl-4-oxidanylidene-5,6,7,8-tetrahydroquinazolin-3-yl]ethoxy]phenyl]pyrrolo[1,2-b]pyridazine-7-carboxylic acid] | 1 to 5 | > 20 | < 0.1
Cc1cc(-c2cc(Cl)ccc2OCCn2c(C)nc3c(c2=O)CC(N2CCC(F)(F)CC2)CC3)c2scc(C(=O)O)c2n1 (stereo not drawn) [Compound 32] | < 1 | < 5 | < 0.1
COCCN(C)C1CCc2nc(C)n(CCOc3ccc(Cl)cc3-c3cc(C)nc4c(C(=O)O)csc34)c(=O)c2C1 (stereo not drawn) [Compound 33] | < 1 | < 5 | < 0.1
Cc1cc(-c2cc(Cl)ccc2OCCn2c(C)nc3c(c2=O)CC(N2CCC4(CN(C)C4)C2)CC3)c2scc(C(=O)O)c2n1 (stereo not drawn) [Compound 34] | > 5 | > 20 | < 0.1
Cc1cc(-c2cc(Cl)ccc2OCCn2c(C)nc3c(c2=O)CC(N2CC4(CN(C)C4)C2)CC3)c2scc(C(=O)O)c2n1 (stereo not drawn) [Compound 35] | > 5 | > 20 | < 0.1
Cc1cc(-c2cc(Cl)ccc2OCCn2c(C)nc3c(c2=O)CC(N(C)C)CC3)c2ccc(C(=O)O)n2n1 (stereo not drawn) [Compound 36, 4-[5-chloranyl-2-[2-[6-[di(methyl)amino]-2-methyl-4-oxidanylidene-5,6,7,8-tetrahydroquinazolin-3-yl]ethoxy]phenyl]-2-methyl-pyrrolo[1,2-b]pyridazine-7-carboxylic acid] | > 5 | > 20 | < 0.1
Cc1cc(-c2cc(Cl)ccc2OCCn2c(C)nc3c(c2=O)CC(N(C)S(C)(=O)=O)CC3)c2scc(C(=O)O)c2n1 (stereo not drawn) [Compound 37] | > 5 | 5 to 20 | < 0.1
CC(=O)N(C)C1CCc2nc(C)n(CCOc3ccc(Cl)cc3-c3cc(C)nc4c(C(=O)O)csc34)c(=O)c2C1 (stereo not drawn) [Compound 38] | > 5 | > 20 | 0.1 to 0.5
Cc1cc(-c2cc(Cl)ccc2OCCn2c(C)nc3c(c2=O)CC(N(C)C)CC3)c2scc(C(=O)NS(C)(=O)=O)c2n1 (stereo not drawn) [Compound 39, 7-[5-chloranyl-2-[2-[6-[di(methyl)amino]-2-methyl-4-oxidanylidene-5,6,7,8-tetrahydroquinazolin-3-yl]ethoxy]phenyl]-5-methyl-N-methylsulfonyl-thieno[3,2-b]pyridine-3-carboxamide; 2,2,2-tris(fluorenyl)acetic acid] | < 1 | < 5 | < 0.1

SMILES | IC50 [1] [µM] | IC50 [2] [µM] | IC50 (human eIF4E protein) [µM]
Cc1cc(-c2cc(Cl)ccc2OCCn2c(C)nc3c(c2=O)CC(N(C)C2CC(F)(F)C2)CC3)c2scc(C(=O)O)c2n1 (stereo not drawn) [Compound 40, 7-[2-[2-[6-[[3,3-bis(fluorenyl)cyclobutyl]-methyl-amino]-2-methyl-4-oxidanylidene-5,6,7,8-tetrahydroquinazolin-3-yl]ethoxy]-5-chloranyl-phenyl]-5-methyl-thieno[3,2-b]pyridine-3-carboxylic acid; 2,2,2-tris(fluorenyl)acetic acid] | < 1 | < 5 | < 0.1
Cc1cc(-c2cc(Cl)ccc2OCCn2c(C)nc3c(c2=O)CC(N(C)CCOC(F)(F)F)CC3)c2scc(C(=O)O)c2n1 (stereo not drawn) [Compound 41] | < 1 | < 5 | < 0.1
Cc1cc(-c2cc(Cl)ccc2OCCn2c(C)nc3c(c2=O)CC(N2CCCCC2)CC3)c2ccc(C(=O)O)n2n1 (stereo not drawn) [Compound 45, 4-[5-chloranyl-2-[2-[2-methyl-4-oxidanylidene-6-(1-piperidyl)-5,6,7,8-tetrahydroquinazolin-3-yl]ethoxy]phenyl]-2-methyl-pyrrolo[1,2-b]pyridazine-7-carboxylic acid] | < 1 | < 5 | < 0.1
Cc1cc(-c2cc(Cl)ccc2OCCn2c(C)nc3c(c2=O)CC(N(C)c2ccncc2)CC3)c2scc(C(=O)O)c2n1 (stereo not drawn) [Compound 47, 7-[5-chloranyl-2-[2-[2-methyl-6-[methyl(4-pyridyl)amino]-4-oxidanylidene-5,6,7,8-tetrahydroquinazolin-3-yl]ethoxy]phenyl]-5-methyl-thieno[3,2-b]pyridine-3-carboxylic acid; 2,2,2-tris(fluorenyl)acetic acid] | > 5 | > 20 | < 0.1
Cc1cc(-c2cc(Cl)ccc2OCCn2c(C)nc3c(c2=O)CC(N2CC(F)(F)C2)CC3)c2scc(C(=O)O)c2n1 (stereo not drawn) [Compound 49] | 1 to 5 | 5 to 20 | 0.1 to 0.5
Cc1cc(-c2cc(Cl)ccc2OCCn2c(C)nc3c(c2=O)CC(N2CCCC(F)(F)C2)CC3)c2scc(C(=O)O)c2n1 (stereo not drawn) [Compound 50] | < 1 | < 5 | < 0.1
Cc1cc(-c2cc(Cl)ccc2OCCn2c(C)nc3c(c2=O)CC(N2CCC(F)(F)CC2)CC3)c2scc(C(=O)NS(C)(=O)=O)c2n1 (stereo not drawn) [Compound 52] | < 1 | < 5 | < 0.1
Cc1cc(-c2cc(Cl)ccc2OCCn2c(C)nc3c(c2=O)CC(N2CCC(F)(F)C2)CC3)c2scc(C(=O)O)c2n1 (stereo not drawn) [Compound 53] | < 1 | < 5 | < 0.1
Cc1cc(-c2cc(Cl)ccc2OCCn2c(C)nc3c(c2=O)CC(N(C)CC(F)(F)F)CC3)c2scc(C(=O)O)c2n1 (stereo not drawn) [Compound 54] | 1 to 5 | 5 to 20 | < 0.1
Cc1cc(-c2cc(Cl)ccc2OCCn2c(C)nc3c(c2=O)CC(N(C)CCOC(F)(F)F)CC3)c2scc(C(=O)NS(C)(=O)=O)c2n1 (stereo not drawn) [Compound 55] | < 1 | < 5 | < 0.1
Cc1cc(-c2cc(Cl)ccc2OCCn2c(C)nc3c(c2=O)CC(N2CC(F)(F)C2)CC3)c2scc(C(=O)NS(C)(=O)=O)c2n1 (stereo not drawn) [Compound 56] | 1 to 5 | 5 to 20 | < 0.1
Cc1cc(-c2cc(Cl)ccc2OCCn2c(C)nc3c(c2=O)CC(N(C)Cc2ccncc2F)CC3)c2scc(C(=O)O)c2n1 (stereo not drawn) [Compound 57] | < 1 | < 5 | < 0.1
Cc1cc(-c2cc(Cl)ccc2OCCn2c(C)nc3c(c2=O)CC(N(C)CC(F)F)CC3)c2scc(C(=O)O)c2n1 (stereo not drawn) [Compound 58] | < 1 | < 5 | < 0.1
Cc1cc(-c2cc(Cl)ccc2OCCn2c(C)nc3c(c2=O)CC(N(C)C)CC3)c2ccc(C(=O)NS(C)(=O)=O)n2n1 (stereo not drawn) [Compound 59, 4-[5-chloranyl-2-[2-[6-[di(methyl)amino]-2-methyl-4-oxidanylidene-5,6,7,8-tetrahydroquinazolin-3-yl]ethoxy]phenyl]-2-methyl-N-methylsulfonyl-pyrrolo[1,2-b]pyridazine-7-carboxamide] | < 1 | < 5 | < 0.1
Cc1cc(-c2cc(Cl)ccc2OCCn2c(C)nc3c(c2=O)CC(N2CCC(F)(F)C2)CC3)c2scc(C(=O)NS(C)(=O)=O)c2n1 (stereo not drawn) [Compound 60] | < 1 | < 5 | < 0.1
Cc1cc(-c2cc(Cl)ccc2OCCn2c(C)nc3c(c2=O)CC(N(C)CC(F)(F)F)CC3)c2scc(C(=O)NS(C)(=O)=O)c2n1 (stereo not drawn) [Compound 61] | < 1 | < 5 | < 0.1
